Columns and labels:
[1] = tested on: mice (arterial blood pressure); assay: Blood pressure response to intravenous peptide injection, radiotelemetry; assay type: in vivo, mouse; settings: for BP response to i.v. injection: 0.2 nmol/kg i.v.
Method: This hypothesis was further tested by measuring changes in BP in response to ET-1 and AI, the precursor of vasoconstrictive peptide AII. The changes in the diastolic and systolic BP (ΔDBP and ΔSBP, respectively) were calculated as the differences between the measured BP values and the basal values measured for the 30 min interval preceding the injection. To reduce the impact of the stress on BP caused by animal handling/injection, animals were receiving daily saline injections for 3 days prior to the experiment.
Figure 3 Mice with combined CathA/Scpep1 deficiency show higher increase in BP in response to systemic injection of ET-1. Sixteen week-old WT, Scpep1^−/−, CathA^S190A and DD male mice kept for two weeks on high-salt diet were intravenously injected with ET-1 solution in saline at a dose of 0.2 nmol/kg (A, B) and 5 nmol/kg (C, D). Changes in the systolic (ΔSBP) or diastolic (ΔDBP) blood pressure were calculated as differences between the means (±S.E) of the BP values recorded within 10 min intervals after the injections and means (±S.E) of the baseline BP values recorded within the 30 min interval before the injections. Two-way repeated measurements ANOVA was used to test differences between the mouse groups: significant differences between the mean BP values in Bonferroni post-test (* p<0.05, ** p<0.001, *** p<0.0001) are shown in the insert. N-value for each genotype is as follows: WT n = 5, DD n = 6, CathA^S190A n = 6, Scpep1 ^−/− n = 7.
Male CathA^S190A mice and appropriate littermate controls were implanted with TA11PA-C10 radiotelemetry sensors (Data Sciences International) in the left carotid artery for direct measurement of arterial pressure and heart rate as described, [38]. The transmitter was placed subcutaneously along the left flank. For basal measurements of mean day and night BP data were recorded continuously (sampling every hour for 20 sec) within 16 consecutive days and averaged for 12 h light and dark intervals. To measure changes in BP after ET-1 and AI injections data were recorded every 3 min for 2 h and averaged for 10-min consecutive intervals. […]

[2] = ET-1 degradation rate in mouse blood and tissues (ELISA); assay type: in vivo; settings: tail vein injection, at least 5 mice
Method: To determine the ET-1 degradation rate we injected mice in the tail vein with an ET-1 solution in saline at a dose of […]. Fifteen minutes after injection mice were sacrificed and their lungs and aorta as well as blood were collected to measure the concentration of ET-1 by ELISA. Endogenous levels of ET-1 were measured in the animals injected with saline.
Figure 6 Mice with combined CathA/Scpep1 deficiency have reduced ET-1 degradation rate. Blood plasma, lungs and aorta were collected from WT, Scpep1 ^−/−, CathA^S190A and DD mice 15 min post an intravenous injection of saline or ET-1 in saline (10 nmol/kg BW). The levels of ET-1 peptide were measured by ELISA in lung extracts (A), aorta extracts (B), and in blood plasma extracts (C) from mice injected with ET-1 and blood plasma extracts from mice injected with saline (D). Data are expressed as mean values (±S.E). At least 5 mice were studied for each genotype. * p<0.05 in Welch's modification of two-tailed unpaired t-test. […]
For peptide extraction, tissues (200 mg) were homogenized in 1 mol/L CH3COOH/20 mM HCl. […] Quantitative assay of ET-1 was performed with an ELISA kit (Enzo Life Sciences ADI-900-020A) as described by the manufacturer.

endothelin-1 [ET-1]
BP response to i.v. injection ([1]; DD mice versus other genotypes, high-salt diet): higher response as compared to all other groups of mice | BP response to i.v. injection ([1]; WT and Scpep1-deficient mice on high-salt diet): no BP increase | time BP remained significantly elevated after injection ([1]; 5 nmol/kg i.v., DD mice): at least 60 min | ET-1 concentration 15 min after injection versus WT or Scpep1-deficient animals ([2]; lungs and aorta of CathA-deficient mice): higher | ET-1 concentration 15 min after injection versus WT, CathA-deficient or Scpep1-deficient mice ([2]; tissues or plasma of DD mice, dose printed 0.1 nmol/kg BW): significantly higher
